Drawing on US10716306B2, “N-alkylsulfonyl indoline compound, agricultural and horticultural insecticide comprising the compound, and method for using the insecticide” (Nihon Nohyaku Co., Ltd., priority 2016, dated 2020), this text covers mortality for four compounds.

One experiment relates to Laodelphax striatellus. The experiment can be described thus: Insecticidal test on Laodelphax striatellus. The format is in vivo. To be noted: 192 h, rice seedlings dipped 30 seconds, ten 3rd-instar larvae, 8 days after the inoculation, read-out: insecticidal efficacy (corrected mortality rate). From the text:
Insecticidal Test on Laodelphax striatellus
The condensed heterocyclic compounds represented by the general formula (1) of the present invention or salts thereof were separately dispersed in water and diluted to 500 ppm. Rice plant seedlings (variety: Nihonbare) were dipped in the agrochemical dispersions for 30 seconds. After air-dried, each seedling was put into a separate glass test tube and inoculated with ten 3rd-instar larvae of Laodelphax striatellus, and then the glass test tubes were capped with cotton plugs. At 8 days after the inoculation, the numbers of surviving larvae and dead larvae were counted, the corrected mortality rate was calculated according to the formula shown below, and the insecticidal efficacy was evaluated according to the criteria shown below. Corrected mortality rate (%)=100×(Survival rate in a non-treatment plot−Survival rate in a treatment plot)/Survival rate in a non-treatment plot [Math. 2] Corrected Mortality Rate A: the corrected mortality rate is 100%. B: the corrected mortality rate is 90 to 99%. C: the corrected mortality rate is 80 to 89%. D: the corrected mortality rate is 50 to 79%.

The next experiment relates to Plutella xylostella. The experiment can be described thus: Insecticidal test on Plutella xylostella. Format: in vivo. To be noted: 144 h, Chinese cabbage seedlings with laid eggs dipped about 30 seconds, 25° C., 6 days after the dip treatment, read-out: insecticidal efficacy (corrected mortality rate). The source says:
Insecticidal Test on Plutella xylostella
Adults of Plutella xylostella were released onto Chinese cabbage seedlings and allowed to lay eggs thereon. At 2 days after the release of the adults, the Chinese cabbage seedlings with laid eggs were dipped for about 30 seconds in agrochemical dispersions diluted to 500 ppm, each of which contained a different kind of indoline compound represented by the general formula (1) of the present invention as an active ingredient. After air-dried, the seedlings were kept in a thermostatic chamber at 25° C. At 6 days after the dip treatment, the number of hatched larvae per plot was counted, the mortality rate was calculated according to the formula shown below, and the insecticidal efficacy was evaluated according to the criteria of Test Example 2. This test was conducted in triplicate using 10 adults of Plutella xylostella per plot. Corrected mortality rate (%)=100×(Number of hatched larvae in a non-treatment plot−Number of hatched larvae in a treatment plot)/Number of hatched larvae in a non-treatment plot [Math. 3]

Take `CCS(=O)(=O)N1c2ccc(C3CC3)cc2CC1c1nc2cc(SC(F)(F)F)ccc2o1` (centres unmarked) [Compound 3-19, 2-(1-ethylsulfonyl-5-cyclopropyl-indolin-2-yl)-5-trifluoromethyl-thiobenzo[d]oxazole]: the mortality at 500 ppm in the experiment with Laodelphax striatellus and in the experiment with Plutella xylostella was 100% each time.
`CCS(=O)(=O)N1c2ccccc2CC1c1nc2cc(C(F)(F)F)cnc2n1C` (centres unmarked) [Compound 2-1, 2-(1-ethylsulfonyl-indolin-2-yl)-3-methyl-6-trifluoromethyl-3H-imidazo[4,5-b]pyridine]: the mortality at 500 ppm with Laodelphax striatellus and with Plutella xylostella was 100% in each case.
`CCS(=O)(=O)N1c2ccc(I)cc2CC1c1nc2cc(SC(F)(F)F)ccc2o1` (centres unmarked) [Compound 3-5, 2-(1-ethylsulfonyl-5-iodoindolin-2-yl)-5-trifluoromethyl-thiobenzo[d]oxazole]: the mortality at 500 ppm in the experiment with Laodelphax striatellus and in the experiment with Plutella xylostella was 100% throughout.
As for `CCS(=O)(=O)N1c2ccccc2CC1c1nc2cc(SC(F)(F)F)ccc2o1` (centres unmarked) [Compound 3-1, 2-(1-ethylsulfonyl-indolin-2-yl)-5-trifluoromethyl-thiobenzo[d]oxazole], the mortality at 500 ppm in the experiment with Laodelphax striatellus and in the experiment on Plutella xylostella was 100% in each case.
